Experimental data taken from PubChem BioAssay (NCI).
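1) Cells in 96-well plates. 2) Compound, 48 h, 5 concentrations. 3) Linear interpolation between surrounding doses. 4) Unreached endpoint = highest concentration. GI50 marks 50% less growth. TGI is the concentration that stops growth completely.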

Legend:
Assay in all cases: inhibition of tumour cell growth, NCI panel, 48 h
HCT-116 colon = system: HCT-116 colon
UACC-62 melanoma = system: UACC-62 melanoma
LXFL 529 NSCLC = system: LXFL 529 NSCLC
HCT-15 colon = system: HCT-15 colon
MALME-3M melanoma = system: MALME-3M melanoma
TK-10 renal = system: TK-10 renal
M19-MEL melanoma = system: M19-MEL melanoma
RXF 393 renal = system: RXF 393 renal
OVCAR-3 ovarian = system: OVCAR-3 ovarian
MOLT-4 leukemia = system: MOLT-4 leukemia

SMILES | TGI (HCT-116 colon) [µM] | TGI (UACC-62 melanoma) [µM] | TGI (LXFL 529 NSCLC) [µM] | TGI (HCT-15 colon) [µM] | TGI (MALME-3M melanoma) [µM] | TGI (TK-10 renal) [µM] | TGI (M19-MEL melanoma) [µM] | TGI (RXF 393 renal) [µM] | TGI (OVCAR-3 ovarian) [µM] | TGI (MOLT-4 leukemia) [µM] | GI50 (HCT-116 colon) [µM] | GI50 (UACC-62 melanoma) [µM] | GI50 (LXFL 529 NSCLC) [µM] | GI50 (HCT-15 colon) [µM] | GI50 (MALME-3M melanoma) [µM] | GI50 (TK-10 renal) [µM] | GI50 (M19-MEL melanoma) [µM] | GI50 (RXF 393 renal) [µM] | GI50 (OVCAR-3 ovarian) [µM] | GI50 (MOLT-4 leukemia) [µM]
CC(C)(C)OC(=O)N[C@H]1CC2(C=C(Cl)C(=O)C(Cl)=C2)OC1=O | 28 | 30.6 | 23.8 | 34.9 | 25.9 | 33.8 | 30.9 | 22.4 | 28.1 | 15.7 |  |  |  |  |  |  |  |  |  | 
CSc1nc(NC2OCC(OC(C)=O)C(OC(C)=O)C2OC(C)=O)c(N=CC=Nc2c(NC3OCC(OC(C)=O)C(OC(C)=O)C3OC(C)=O)nc(SC)[nH]c2=O)c(=O)[nH]1 (stereo not given) | > 100 | > 100 | > 100 | > 100 | > 100 | > 100 | > 100 | 53 | > 100 | > 100 |  |  |  |  |  |  |  |  |  | 
C/C(=N\NC(=S)NC(CCC(=O)O)C(=O)O)c1ccccn1 (stereo not given) | > 100 | > 100 | > 100 | > 100 | > 100 | > 100 | > 100 | > 100 | > 100 | > 100 |  |  |  |  |  |  |  |  |  | 
CCCCCCCCC/C=C1\CCC(CN2CCOCC2)C1=O (stereo not given) | 4.04 | 10.7 | 2.95 | 7.05 | 19 | 5.56 | 10.4 | 4 | 24.9 | 5.84 |  |  |  |  |  |  |  |  |  | 
[Cl-].[La+3].[O-]/N=C(\c1ccccc1)c1ccccn1.[O-]/N=C(\c1ccccc1)c1ccccn1.[O-]/N=C(\c1ccccc1)c1ccccn1 | > 100 | > 100 | > 100 | > 100 | > 100 | > 100 | 50 | > 90.4 | > 100 | > 100 | 44 | 33.3 | 60.3 | 30.8 | 45.8 | > 74.4 | 22 | 29.8 | 39.2 | 37.6
CCOC(=O)C(=C=C=C(c1ccccc1)c1ccccc1)C(=O)OCC | 38.6 | 37.7 | 31.4 | 49.1 | 40.2 | 31.3 | 37.7 | 32.8 | 31 | 30.8 |  |  |  |  |  |  |  |  |  | 
